Data taken from patent publication US20100267561A1, “HERBICIDAL PYRIDAZINONE DERIVATIVES” (priority 2007, published 2010).

Columns and labels:
Assay in all cases: Test B pre-/postemergence plant response
Format in all cases: in vivo
[1] = system: green foxtail (Setaria viridis)
How it was run: (§1)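 Visual scoring from 0 (no effect) to 100 (complete control) against untreated controls was done 13 to 15 days after greenhouse treatment. Chemicals were formulated in a surfactant-containing non-phytotoxic solvent and applied to soil preemergence or to 1- to 4-leaf (2-18 cm) plants postemergence.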

[2] = system: giant foxtail (Setaria faberii)
How it was run: as §1

[3] = system: blackgrass (Alopecurus myosuroides); settings: for Blackgrass plant response rating: 8 g ai/ha
How it was run: as §1

[4] = system: downy bromegrass (Bromus tectorum); settings: for Bromegrass, Downy plant response rating: 8 g ai/ha
How it was run: as §1

[5] = system: common (oilseed) sunflower (Helianthus annuus); settings: Preemergence
How it was run: as §1

[6] = system: lambsquarters (Chenopodium album)
How it was run: as §1

[7] = system: morningglory (Ipomoea coccinea)
How it was run: as §1

[8] = system: large crabgrass (Digitaria sanguinalis)
How it was run: as §1

[9] = system: catchweed bedstraw (Galium aparine); settings: Preemergence
How it was run: as §1

wild oat (Avena fatua) = system: wild oat (Avena fatua)
How it was run: as §1

[10] = system: bermudagrass (Cynodon dactylon); settings: for Bermudagrass plant response rating: 8 g ai/ha
How it was run: as §1

corn (Zea mays) = system: corn (Zea mays)
How it was run: as §1

[11] = system: wheat (Triticum aestivum)
How it was run: as §1

[12] = system: velvetleaf (Abutilon theophrasti)
How it was run: as §1

[13] = 8 g ai/ha, postemergence, 0-100 scale
[14] = Postemergence, 16 g ai/ha, scale 0 to 100
[15] = Postemergence, 31 g ai/ha, scale 0 to 100, 0 no effect, 100 complete control
[16] = Postemergence, 62 g ai/ha, scale 0 to 100
[17] = Preemergence, 16 g ai/ha, scale 0 to 100 (0 no effect, 100 complete control)
[18] = Preemergence, 31 g ai/ha, 0 to 100 scale, 0 no effect, 100 complete control
[19] = Preemergence, 62 g ai/ha, scale 0 to 100
[20] = Preemergence, 8 g ai/ha, scale 0 to 100
[21] = 16 g ai/ha, scale 0 to 100 (0 no effect, 100 complete control)
[22] = 31 g ai/ha, 0 to 100 scale, 0 no effect, 100 complete control
[23] = Preemergence, scale 0 to 100 (0 no effect, 100 complete control)
[24] = Preemergence, 31 g ai/ha, scale 0 to 100 (0 no effect, 100 complete control)
[25] = Preemergence, 62 g ai/ha, 0 to 100 scale, 0 no effect, 100 complete control
[26] = Preemergence, 16 g ai/ha, scale 0 to 100
[27] = 31 g ai/ha, scale 0 to 100 (0 no effect, 100 complete control)
[28] = 62 g ai/ha, 0 to 100 scale, 0 no effect, 100 complete control

CCc1cc(-c2ccc(F)cc2)nn1-c1c(O)cnn(C)c1=O [Compound 25]
Foxtail, Green plant response rating [1, 13]: 55
Plant response rating, Foxtail, Green [1, 14]: 70
Plant response rating, Foxtail, Green [1, 15]: 80
Plant response rating, Foxtail, Green [1, 16]: 98
Plant response rating, Foxtail, Green [1, 17]: 98
Plant response rating, Foxtail, Green [1, 18]: 98
Plant response rating, Foxtail, Green [1, 19]: 98
Foxtail, Green plant response rating [1, 20]: 50
Foxtail, Giant plant response rating [2, 13]: 70
Plant response rating, Foxtail, Giant [2, 14]: 85
Plant response rating, Foxtail, Giant [2, 15]: 85
Plant response rating, Foxtail, Giant [2, 16]: 95
Plant response rating, Foxtail, Giant [2, 17]: 60
Plant response rating, Foxtail, Giant [2, 18]: 90
Plant response rating, Foxtail, Giant [2, 19]: 100
Foxtail, Giant plant response rating [2, 20]: 50
Blackgrass plant response rating ([3]; postemergence, 0-100 scale): 0
Plant response rating, Blackgrass [3, 14]: 40
Plant response rating, Blackgrass [3, 15]: 75
Plant response rating, Blackgrass [3, 16]: 95
Plant response rating, Blackgrass [3, 19]: 90
Blackgrass plant response rating ([3]; Preemergence, scale 0 to 100): 70
Bromegrass, Downy plant response rating ([4]; postemergence, 0-100 scale): 0
Plant response rating, Bromegrass, Downy [4, 14]: 0
Plant response rating, Bromegrass, Downy [4, 15]: 10
Plant response rating, Bromegrass, Downy [4, 16]: 15
Plant response rating, Bromegrass, Downy [4, 17]: 0
Plant response rating, Bromegrass, Downy [4, 18]: 0
Plant response rating, Bromegrass, Downy [4, 19]: 0
Bromegrass, Downy plant response rating ([4]; Preemergence, scale 0 to 100): 0
Plant response rating, Sunflower [5, 21]: 0
Plant response rating, Sunflower [5, 22]: 0
Plant response rating, Sunflower ([5]; 62 g ai/ha, scale 0 to 100): 0
Sunflower plant response rating ([5]; 8 g ai/ha, scale 0 to 100): 0
Lambsquarters plant response rating [6, 13]: 0
Plant response rating, Lambsquarters [6, 14]: 0
Plant response rating, Lambsquarters [6, 15]: 0
Plant response rating, Lambsquarters [6, 16]: 10
Plant response rating, Lambsquarters [6, 17]: 0
Plant response rating, Lambsquarters [6, 18]: 0
Plant response rating, Lambsquarters [6, 19]: 40
Lambsquarters plant response rating [6, 20]: 0
Morningglory plant response rating [7, 13]: 0
Plant response rating, Morningglory [7, 14]: 0
Plant response rating, Morningglory [7, 15]: 0
Plant response rating, Morningglory [7, 16]: 20
Plant response rating, Morningglory [7, 17]: 0
Plant response rating, Morningglory [7, 18]: 0
Plant response rating, Morningglory [7, 19]: 0
Morningglory plant response rating [7, 20]: 0
Crabgrass, Large plant response rating [8, 13]: 5
Plant response rating, Crabgrass, Large [8, 14]: 60
Plant response rating, Crabgrass, Large [8, 15]: 75
Plant response rating, Crabgrass, Large [8, 16]: 80
Plant response rating, Crabgrass, Large [8, 17]: 20
Plant response rating, Crabgrass, Large [8, 18]: 60
Plant response rating, Crabgrass, Large [8, 19]: 80
Crabgrass, Large plant response rating [8, 20]: 0
Plant response rating, Galium [9, 21]: 0
Plant response rating, Galium [9, 22]: 0
Plant response rating, Galium ([9]; 62 g ai/ha, scale 0 to 100): 0
Galium plant response rating ([9]; 8 g ai/ha, scale 0 to 100): 0
Oat, Wild plant response rating (wild oat (Avena fatua); [13]): 25
Plant response rating, Oat, Wild (wild oat (Avena fatua); [14]): 55
Plant response rating, Oat, Wild (wild oat (Avena fatua); [15]): 70
Plant response rating, Oat, Wild (wild oat (Avena fatua); [16]): 95
Plant response rating, Oat, Wild (wild oat (Avena fatua); [17]): 0
Plant response rating, Oat, Wild (wild oat (Avena fatua); [18]): 0
Plant response rating, Oat, Wild (wild oat (Avena fatua); [19]): 60
Oat, Wild plant response rating (wild oat (Avena fatua); [20]): 0
Bermudagrass plant response rating ([10]; postemergence, 0-100 scale): 0
Plant response rating, Bermudagrass [10, 14]: 0
Plant response rating, Bermudagrass [10, 15]: 60
Plant response rating, Bermudagrass [10, 16]: 60
Bermudagrass plant response rating [10, 23]: 0
Plant response rating, Bermudagrass [10, 17]: 70
Plant response rating, Bermudagrass [10, 18]: 80
Plant response rating, Bermudagrass [10, 19]: 100
Corn plant response rating (corn (Zea mays); [13]): 0
Plant response rating, Corn (corn (Zea mays); [14]): 50
Plant response rating, Corn (corn (Zea mays); [15]): 95
Plant response rating, Corn (corn (Zea mays); [17]): 5
Plant response rating, Corn (corn (Zea mays); [18]): 50
Plant response rating, Corn (corn (Zea mays); [19]): 75
Corn plant response rating (corn (Zea mays); [20]): 0
Wheat plant response rating [11, 13]: 0
Plant response rating, Wheat [11, 14]: 0
Plant response rating, Wheat [11, 15]: 0
Plant response rating, Wheat [11, 16]: 0
Plant response rating, Wheat [11, 17]: 0
Plant response rating, Wheat [11, 18]: 0
Plant response rating, Wheat [11, 19]: 15
Wheat plant response rating [11, 20]: 0
Velvetleaf plant response rating [12, 13]: 0
Plant response rating, Velvetleaf [12, 14]: 0
Plant response rating, Velvetleaf [12, 15]: 0
Plant response rating, Velvetleaf [12, 16]: 0
Plant response rating, Velvetleaf [12, 17]: 0
Plant response rating, Velvetleaf [12, 18]: 0
Plant response rating, Velvetleaf [12, 19]: 0
Velvetleaf plant response rating [12, 20]: 0

C#CCOC(=O)Oc1cnn(C)c(=O)c1-n1nc(-c2ccc(Cl)cc2)cc1C [Compound 58]
Plant response rating, Foxtail, Green [1, 24]: 100
Plant response rating, Foxtail, Green [1, 25]: 100
Foxtail, Green plant response rating [1, 20]: 100
Foxtail, Green plant response rating [1, 26]: 100
Plant response rating, Foxtail, Giant [2, 24]: 100
Plant response rating, Foxtail, Giant [2, 25]: 100
Foxtail, Giant plant response rating [2, 20]: 55
Foxtail, Giant plant response rating [2, 26]: 95
Plant response rating, Blackgrass [3, 17]: 100
Plant response rating, Blackgrass [3, 24]: 100
Plant response rating, Blackgrass [3, 25]: 100
Blackgrass plant response rating ([3]; Preemergence, scale 0 to 100): 80
Plant response rating, Bromegrass, Downy [4, 24]: 65
Plant response rating, Bromegrass, Downy [4, 25]: 85
Bromegrass, Downy plant response rating ([4]; Preemergence, scale 0 to 100): 0
Plant response rating, Sunflower [5, 27]: 0
Plant response rating, Sunflower [5, 28]: 0
Sunflower plant response rating ([5]; 8 g ai/ha, scale 0 to 100): 0
Sunflower plant response rating ([5]; 16 g ai/ha, scale 0 to 100): 0
Plant response rating, Lambsquarters [6, 24]: 95
Plant response rating, Lambsquarters [6, 25]: 100
Lambsquarters plant response rating [6, 20]: 0
Lambsquarters plant response rating [6, 26]: 0
Plant response rating, Morningglory [7, 24]: 0
Plant response rating, Morningglory [7, 25]: 0
Morningglory plant response rating [7, 20]: 0
Morningglory plant response rating [7, 26]: 0
Plant response rating, Crabgrass, Large [8, 24]: 90
Plant response rating, Crabgrass, Large [8, 25]: 100
Crabgrass, Large plant response rating [8, 20]: 50
Crabgrass, Large plant response rating [8, 26]: 75
Plant response rating, Galium [9, 27]: 0
Plant response rating, Galium [9, 28]: 0
Galium plant response rating ([9]; 8 g ai/ha, scale 0 to 100): 0
Galium plant response rating ([9]; 16 g ai/ha, scale 0 to 100): 0
Plant response rating, Oat, Wild (wild oat (Avena fatua); [24]): 80
Plant response rating, Oat, Wild (wild oat (Avena fatua); [25]): 95
Oat, Wild plant response rating (wild oat (Avena fatua); [20]): 80
Oat, Wild plant response rating (wild oat (Avena fatua); [26]): 80
Bermudagrass plant response rating [10, 23]: 100
Plant response rating, Bermudagrass [10, 17]: 100
Plant response rating, Bermudagrass [10, 24]: 100
Plant response rating, Bermudagrass [10, 25]: 100
Plant response rating, Corn (corn (Zea mays); [24]): 55
Plant response rating, Corn (corn (Zea mays); [25]): 80
Corn plant response rating (corn (Zea mays); [20]): 0
Corn plant response rating (corn (Zea mays); [26]): 0
Plant response rating, Wheat [11, 24]: 40
Plant response rating, Wheat [11, 25]: 80
Wheat plant response rating [11, 26]: 0
Plant response rating, Velvetleaf [12, 24]: 0
Plant response rating, Velvetleaf [12, 25]: 0
Velvetleaf plant response rating [12, 20]: 0
Velvetleaf plant response rating [12, 26]: 0
